Measured values published in PubChem BioAssay (NCI).
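Assay format: 96-well plates, 48-hour exposure. GI50 marks 50% less growth. TGI is the concentration that stops growth completely.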

Legend:
Test in all cases: inhibition of tumour cell growth, NCI panel, 48 h
[1] = test system: NCI-H460 lung
[2] = test system: SK-MEL-5 melanoma
[3] = test system: SW-620 colon
[4] = test system: HOP-92 NSCLC
[5] = test system: UACC-257 melanoma
[6] = test system: NCI/ADR-RES ovarian
[7] = test system: OVCAR-5 ovarian
[8] = test system: UO-31 renal
[9] = test system: U251 CNS
[10] = test system: HS 578T breast
[11] = test system: BT-549 breast
[12] = test system: RPMI-8226 leukemia
[13] = test system: HOP-62 NSCLC
[14] = test system: SK-MEL-28 melanoma
[15] = test system: DU-145 prostate
[16] = test system: A549 NSCLC
[17] = test system: T-47D breast
[18] = test system: HCT-15 colon
[19] = test system: OVCAR-8 ovarian
[20] = test system: PC-3 prostate
[21] = test system: SR leukemia
[22] = test system: TK-10 renal
[23] = test system: OVCAR-3 ovarian
[24] = test system: SNB-75 CNS
[25] = test system: NCI-H226 lung
[26] = test system: M14 melanoma
[27] = test system: MCF7 breast
[28] = test system: KM12 colon
[29] = test system: SF-539 CNS
[30] = test system: HCT-116 colon
[31] = test system: 786-0 renal
[32] = test system: OVCAR-4 ovarian
[33] = test system: HL-60(TB) leukemia
[34] = test system: NCI-H522 lung
[35] = test system: MOLT-4 leukemia
[36] = test system: MDA-MB-435
[37] = test system: IGROV1 ovarian
[38] = test system: ACHN renal
[39] = test system: K-562 leukemia
[40] = test system: LOX IMVI melanoma
[41] = test system: RXF 393 renal
[42] = test system: MDA-MB-231 breast
[43] = test system: SNB-19 CNS
[44] = test system: HCC-2998 colon
[45] = test system: HT29 colon
[46] = test system: EKVX NSCLC
[47] = test system: A498 renal
[48] = test system: UACC-62 melanoma
[49] = test system: NCI-H23 lung
[50] = test system: SK-MEL-2 melanoma
[51] = test system: CAKI-1 renal
[52] = test system: CCRF-CEM leukemia
[53] = test system: SN12C renal
[54] = test system: SF-268 CNS
[55] = test system: SK-OV-3 ovarian
[56] = test system: COLO 205 colon
[57] = test system: SF-295 CNS
[58] = test system: MALME-3M melanoma

## CN(C)c1nc(N)nc(CCl)n1
[1]
  TGI: > 100 µM
[2]
  TGI: 90.6 µM
[3]
  TGI: 87.7 µM
[4]
  TGI: 45.6 µM
[5]
  TGI: > 100 µM
[6]
  TGI: 86.8 µM
[7]
  TGI: > 100 µM
[8]
  TGI: 26.1 µM
[9]
  TGI: > 100 µM
[10]
  TGI: > 100 µM
[11]
  TGI: > 100 µM
[12]
  TGI: > 100 µM
[13]
  TGI: 46.8 µM
[14]
  TGI: > 100 µM
[15]
  TGI: > 100 µM
[16]
  TGI: > 100 µM
[17]
  TGI: > 100 µM
[18]
  TGI: 93 µM
[19]
  TGI: > 100 µM
[20]
  TGI: > 100 µM
[21]
  TGI: 65.8 µM
[22]
  TGI: > 100 µM
[23]
  TGI: 49 µM
[24]
  TGI: 11.3 µM
[25]
  TGI: > 100 µM
[26]
  TGI: > 100 µM
[27]
  TGI: > 100 µM
[28]
  TGI: > 100 µM
[29]
  TGI: 60.2 µM
[30]
  TGI: > 100 µM
[31]
  TGI: 58.3 µM
[32]
  TGI: 38.2 µM
[33]
  TGI: 78.2 µM
[34]
  TGI: 25 µM
[35]
  TGI: > 100 µM
[36]
  TGI: > 100 µM
[37]
  TGI: 35 µM
[38]
  TGI: 39.7 µM
[39]
  TGI: 84.4 µM
[40]
  TGI: 21.9 µM
[41]
  TGI: > 100 µM
[42]
  TGI: 72.4 µM
[43]
  TGI: > 100 µM
[44]
  TGI: > 100 µM
[45]
  TGI: > 100 µM
[46]
  TGI: 41.6 µM
[47]
  TGI: 70.8 µM
[48]
  TGI: 41.5 µM
[49]
  TGI: 68.9 µM
[50]
  TGI: > 100 µM
[51]
  TGI: 18 µM
[52]
  TGI: 58.6 µM
[53]
  TGI: > 100 µM
[54]
  TGI: > 100 µM
[55]
  TGI: > 100 µM
[56]
  TGI: 61.8 µM
[57]
  TGI: > 100 µM

## Clc1ccc(Nc2nnc(CNc3ccccc3)c3ccccc23)cc1
[1]
  GI50: 3.21 µM
  TGI: 9.97 µM
[2]
  GI50: 2.08 µM
  TGI: 5.27 µM
[3]
  GI50: 3.84 µM
  TGI: 11.1 µM
[4]
  GI50: 0.777 µM
  TGI: 6.3 µM
[5]
  GI50: 2.74 µM
  TGI: 6.87 µM
[6]
  GI50: 4.12 µM
  TGI: 17 µM
[7]
  GI50: 4.92 µM
  TGI: > 25 µM
[8]
  GI50: 1.36 µM
  TGI: 6.66 µM
[9]
  GI50: 3.28 µM
  TGI: 7.33 µM
[10]
  GI50: 2.95 µM
  TGI: 12.9 µM
[11]
  GI50: 2.93 µM
  TGI: 8.2 µM
[12]
  GI50: 2.1 µM
  TGI: 7.71 µM
[13]
  GI50: 2.86 µM
  TGI: 8.84 µM
[14]
  GI50: 3.67 µM
  TGI: 10.5 µM
[15]
  GI50: 4.55 µM
  TGI: > 25 µM
[16]
  GI50: 3.17 µM
  TGI: 20 µM
[17]
  GI50: 1.17 µM
  TGI: 8.28 µM
[18]
  GI50: 2.99 µM
  TGI: 9.39 µM
[19]
  GI50: 4.63 µM
  TGI: 16.8 µM
[20]
  GI50: 1.91 µM
  TGI: 14.4 µM
[21]
  GI50: 1.75 µM
  TGI: 12.3 µM
[23]
  GI50: 3.51 µM
  TGI: 8.69 µM
[24]
  GI50: 0.871 µM
  TGI: 7.05 µM
[25]
  GI50: 2.52 µM
  TGI: 7.98 µM
[26]
  GI50: 1.74 µM
  TGI: 6.65 µM
[27]
  GI50: 2.68 µM
  TGI: 11.1 µM
[28]
  GI50: 3.05 µM
  TGI: 9.92 µM
[29]
  GI50: 3.67 µM
  TGI: 8.09 µM
[30]
  GI50: 1.2 µM
  TGI: 5.02 µM
[31]
  GI50: 4.01 µM
  TGI: 12.5 µM
[32]
  GI50: 3 µM
  TGI: > 25 µM
[33]
  GI50: 3.71 µM
  TGI: 13 µM
[34]
  GI50: 0.684 µM
  TGI: 4.62 µM
[35]
  GI50: 1.71 µM
  TGI: 8.74 µM
[36]
  GI50: 1.47 µM
  TGI: 7.88 µM
[37]
  GI50: 1.93 µM
  TGI: 10.7 µM
[38]
  GI50: 3.1 µM
  TGI: > 25 µM
[39]
  GI50: 1.71 µM
  TGI: 14.5 µM
[40]
  GI50: 1.57 µM
  TGI: 4.97 µM
[41]
  GI50: 2.6 µM
  TGI: 8.12 µM
[42]
  GI50: 1.95 µM
  TGI: 8.73 µM
[43]
  GI50: 4.71 µM
  TGI: 22.7 µM
[44]
  GI50: 4.85 µM
  TGI: 15.9 µM
[45]
  GI50: 1.46 µM
  TGI: 6.36 µM
[46]
  GI50: 1.61 µM
  TGI: 15 µM
[47]
  GI50: 1.45 µM
  TGI: 6.06 µM
[48]
  GI50: 1.25 µM
  TGI: 5.7 µM
[49]
  GI50: 2.5 µM
  TGI: 16.4 µM
[50]
  GI50: 2.16 µM
  TGI: 5.83 µM
[52]
  GI50: 3.53 µM
  TGI: 17.6 µM
[53]
  GI50: 3.95 µM
  TGI: 18.9 µM
[54]
  GI50: 3.28 µM
  TGI: 14.5 µM
[55]
  GI50: 3.17 µM
  TGI: 11.4 µM
[56]
  GI50: 0.915 µM
  TGI: 5.39 µM
[58]
  GI50: 2.66 µM
  TGI: 9.92 µM
[57]
  GI50: 2.98 µM
  TGI: 8.77 µM

## COc1ccc(C2C(C#N)=C(N)Oc3c2sc2c(F)cccc32)cc1 (stereo not drawn)
[1]
  GI50: 2.59 µM
  TGI: 11.9 µM
[2]
  GI50: 3.93 µM
  TGI: 16.3 µM
[3]
  GI50: 1.82 µM
  TGI: 15.6 µM
[4]
  GI50: 4.32 µM
  TGI: 21.2 µM
[5]
  GI50: 14.6 µM
  TGI: 88.8 µM
[6]
  GI50: 0.881 µM
  TGI: 5.96 µM
[7]
  GI50: 8.53 µM
  TGI: 27.6 µM
[8]
  GI50: 4.66 µM
  TGI: 17.7 µM
[9]
  GI50: 2.74 µM
  TGI: 11.8 µM
[10]
  GI50: 2.81 µM
  TGI: 27 µM
[11]
  GI50: 4.65 µM
  TGI: 24 µM
[12]
  GI50: 2.66 µM
  TGI: 12.5 µM
[13]
  GI50: 1.75 µM
  TGI: 15.9 µM
[14]
  GI50: 8.25 µM
  TGI: 23.2 µM
[15]
  GI50: 2.96 µM
  TGI: 11.4 µM
[16]
  GI50: 3.12 µM
  TGI: 22.3 µM
[17]
  GI50: 2.57 µM
  TGI: 25.9 µM
[18]
  GI50: 1.73 µM
  TGI: 12.4 µM
[19]
  GI50: 3.11 µM
  TGI: 14.5 µM
[20]
  GI50: 2.36 µM
  TGI: 11.7 µM
[21]
  GI50: 0.706 µM
  TGI: 14.2 µM
[22]
  GI50: 5.69 µM
  TGI: 23.5 µM
[23]
  GI50: 1.38 µM
  TGI: 4.94 µM
[24]
  GI50: 2.42 µM
  TGI: 14.5 µM
[25]
  GI50: 14 µM
  TGI: 32.6 µM
[26]
  GI50: 1.34 µM
  TGI: 4.54 µM
[27]
  GI50: 0.711 µM
  TGI: 13.6 µM
[28]
  GI50: 1.62 µM
  TGI: 17.5 µM
[29]
  GI50: 2.13 µM
  TGI: 6.24 µM
[30]
  GI50: 2.7 µM
  TGI: 12.1 µM
[31]
  GI50: 3.34 µM
  TGI: 13 µM
[32]
  GI50: 8.95 µM
  TGI: 31 µM
[33]
  GI50: 1.75 µM
  TGI: 6.5 µM
[34]
  GI50: 0.799 µM
  TGI: 6.35 µM
[35]
  GI50: 2.62 µM
  TGI: 14 µM
[36]
  GI50: 0.315 µM
  TGI: 1.4 µM
[37]
  GI50: 2.9 µM
  TGI: 19.5 µM
[38]
  GI50: 6.08 µM
  TGI: 21.4 µM
[39]
  GI50: 0.493 µM
  TGI: 18.2 µM
[40]
  GI50: 2.4 µM
  TGI: 12.4 µM
[41]
  GI50: 1.81 µM
  TGI: 5.77 µM
[42]
  GI50: 3.77 µM
  TGI: 20.3 µM
[43]
  GI50: 2.99 µM
  TGI: 16.8 µM
[44]
  GI50: 3.04 µM
  TGI: 14 µM
[45]
  GI50: 3.23 µM
  TGI: 11.1 µM
[46]
  GI50: 4.7 µM
  TGI: 22.5 µM
[47]
  GI50: 2.1 µM
  TGI: 15.6 µM
[48]
  GI50: 2.41 µM
  TGI: 18.9 µM
[49]
  GI50: 3.6 µM
  TGI: 21.8 µM
[50]
  GI50: 3 µM
  TGI: 18.6 µM
[52]
  GI50: 1.7 µM
  TGI: 12.5 µM
[53]
  GI50: 3.94 µM
  TGI: 16.5 µM
[54]
  GI50: 3.95 µM
  TGI: 19.6 µM
[55]
  GI50: 4.35 µM
  TGI: 36.7 µM
[56]
  GI50: 2.62 µM
  TGI: 8.18 µM
[58]
  GI50: 11.6 µM
  TGI: 26.3 µM
[57]
  GI50: 2.1 µM
  TGI: 11.5 µM
